# From patent publication US9849104B2 (Gemphire Therapuetics Inc., priority 2015, dated 2017)
# Read-outs that look alike come from different tables or passages of the source.
# Columns and labels:
# [1] = system: STAM model of non-alcoholic steatohepatitis (NASH)
# Procedure: Telmisartan (Micardis®) was purchased from Boehringer Ingelheim GmbH (Germany) and dissolved in pure water.
# Telmisartan was administered at a dose of 10 mg/kg once daily.
# Eight-hour fasting blood glucose was measured in whole blood using Life Check (EIDIA Co. Ltd., Japan). For plasma biochemistry, eight-hour fasting blood was collected in polypropylene tubes with anticoagulant (Novo-Heparin, Mochida Pharmaceutical, Japan) and centrifuged at 1,000×g for 15 minutes at 4° C. The supernatant was collected and stored at −80° C. until use. Plasma insulin levels were quantified by Ultra Sensitive Mouse Insulin ELISA kit (Morinaga Institute of Biological Science, Inc., Japan).
# On the day of termination, non-fasting blood glucose was measured in whole blood using Life Check. For plasma biochemistry, non-fasting blood was collected in polypropylene tubes with anticoagulant (Novo-Heparin) and centrifuged at 1,000×g for 15 minutes at 4° C. The supernatant was collected and stored at −80° C. until use. Plasma ALT, AST, ALP, GGT, BUN, creatinine and total bilirubin levels were measured by FUJI DRI-CHEM 7000 (Fujifilm Corporation, Japan). Plasma ketone body levels were quantified by EnzyChrom™ Ketone Body Assay Kit (BioAssay Systems, USA).
# Liver samples were homogenized in chloroform-methanol (2:1, v/v) and incubated overnight at room temperature. After washing with chloroform-methanol-water (8:4:3, v/v/v), the extracts were evaporated to dryness, and dissolved in isopropanol. Liver triglyceride content was measured by Triglyceride E-test (Wako Pure Chemical Industries). […]
# Statistical analyses were performed using Bonferroni Multiple Comparison Test on GraphPad Prism 6 (GraphPad Software Inc., USA). […] Results were expressed as mean±SD.
# The viability, clinical signs and behavior were monitored daily. Body weight was recorded before the treatment. […] The animals were sacrificed by exsanguinations through direct cardiac puncture under isoflurane anesthesia (Pfizer Inc.) at 9 weeks of age.
# [2] = male, Wistar, rat, in vivo, po, 10 mg/kg
# Procedure: Dose solution was prepared by dissolving labeled drug in 0.45 mL ethanol and 4.05 mL 0.5% methylcellulose in water. […] Final specific activity of dose solution was 10.37 μCi/mg.
# Male Wistar rats with an average weight of 202 g were fasted overnight prior to dosing. […] Carcasses were rapidly frozen in dry ice/hexane mixture and prepared for whole body sectioning and autoradiography. Sections of 50 μm thickness were air dried at −20° C. and applied to BioMax scientific imaging film (Eastman Kodak, Rochester, N.Y.) or phosphor imaging plates for autoradiographic exposure (Molecular Dynamics, Sunnyvale, Calif.). Carbon-14 standards (American Radiolabeled Chemicals, St. Louis) were included on representative films and plates for calibration of the analyzer. Processed films were digitized with the analyzer scanner (Loats INQUIRY image analysis system, Loats Associates, Westminster, Md.), and radioactivity remaining in tissues was determined by quantitative video densitometric analysis of digital images. Imaging plates were scanned after 1-week exposure. Resulting electronic images were used for preliminary evaluation of distribution.
# [3] = Musculoskeletal adverse events, study A4141001; type: in vivo, human
# [4] = A4141001, patient type IIa + IIb
smiles,measurement,setting,value
"CCCc1nc2c(C)cc(-c3nc4ccccc4n3C)cc2n1Cc1ccc(-c2ccccc2C(=O)O)cc1 [Telmisartan, reference compound]","NAFLD Activity score, NAS (mean ± SD)","[1]; STAM NASH mice, 10 mg/kg PO QD 6-9 wks, 10 mg/kg",significant reduction
same,mortality during the treatment period,"[1]; STAM NASH mice, 10 mg/kg PO QD, before reaching Day 21",one mouse was found dead
same,Fasting blood glucose (mean ± SD),"[1]; STAM NASH mice, 10 mg/kg PO QD, Day 18, 8 hours of fasting, listed as telemisartan, 10 mg/kg",significant increase
same,Liver triglyceride (mean ± SD),"[1]; STAM NASH mice, 10 mg/kg PO QD, Day 21, listed as telemisartan, 10 mg/kg",significant decrease
same,Non-fasting blood glucose (mean ± SD),"[1]; STAM NASH mice, 10 mg/kg PO QD, termination (Day 21), listed as telemisartan, 10 mg/kg",significant increase
same,fibrosis area compared with the Vehicle in NASH group,"[1]; STAM NASH mice, all treatment groups (gemcabene 30, 100, 300 mg/kg; telmisartan 10 mg/kg)",significantly decreased
same,Plasma ALP (mean ± SD),"[1]; mouse, in vivo, po, 10 mg/kg",significant increases
same,Plasma BUN (mean ± SD),"[1]; mouse, in vivo, po, 10 mg/kg",significant increase
same,Plasma GGT (mean ± SD),"[1]; mouse, in vivo, po, 10 mg/kg",1 ± 0 U/L
same,Plasma creatinine (mean ± SD),"[1]; mouse, in vivo, po, 10 mg/kg",0.1 ± 0.0 mg/dL
CC(C)(CCCCOCCCCC(C)(C)C(=O)O)C(=O)O [[14C] gemcabene],radioequivalents remaining in Adrenal,[2]; 1 h,6.05 μg equivalents/g
same,radioequivalents remaining in Blood,[2]; 1 h,15.46 μg equivalents/g
same,radioequivalents remaining in Brain,[2]; 1 h,0.41 μg equivalents/g
same,radioequivalents remaining in Kidney,[2]; 1 h,18.75 μg equivalents/g
same,radioequivalents remaining in Liver,[2]; 1 h,35.78 μg equivalents/g
same,radioequivalents remaining in Lung,[2]; 1 h,11.69 μg equivalents/g
same,radioequivalents remaining in Muscle,[2]; 1 h,1.35 μg equivalents/g
same,radioequivalents remaining in Adrenal,[2]; 4 h,4.76 μg equivalents/g
same,radioequivalents remaining in Blood,[2]; 4 h,13.65 μg equivalents/g
same,radioequivalents remaining in Brain,[2]; 4 h,0.47 μg equivalents/g
same,radioequivalents remaining in Kidney,[2]; 4 h,17.84 μg equivalents/g
same,radioequivalents remaining in Liver,[2]; 4 h,37.08 μg equivalents/g
same,radioequivalents remaining in Lung,[2]; 4 h,10.15 μg equivalents/g
same,radioequivalents remaining in Muscle,[2]; 4 h,1.40 μg equivalents/g
same,radioequivalents remaining in Adrenal,[2]; 8 h,4.29 μg equivalents/g
same,radioequivalents remaining in Blood,[2]; 8 h,9.75 μg equivalents/g
same,radioequivalents remaining in Brain,[2]; 8 h,0.43 μg equivalents/g
same,radioequivalents remaining in Kidney,[2]; 8 h,16.44 μg equivalents/g
same,radioequivalents remaining in Liver,[2]; 8 h,27.42 μg equivalents/g
same,radioequivalents remaining in Lung,[2]; 8 h,7.59 μg equivalents/g
same,radioequivalents remaining in Muscle,[2]; 8 h,0.99 μg equivalents/g
same,radioequivalents remaining in Adrenal,[2]; 24 h,1.42 μg equivalents/g
same,radioequivalents remaining in Blood,[2]; 24 h,4.69 μg equivalents/g
same,radioequivalents remaining in Brain,[2]; 24 h,0.24 μg equivalents/g
same,radioequivalents remaining in Kidney,[2]; 24 h,17.45 μg equivalents/g
same,radioequivalents remaining in Liver,[2]; 24 h,24.35 μg equivalents/g
same,radioequivalents remaining in Lung,[2]; 24 h,3.58 μg equivalents/g
same,radioequivalents remaining in Muscle,[2]; 24 h,0.45 μg equivalents/g
same,radioequivalents remaining in Adrenal,[2]; 48 h,0.22 μg equivalents/g
same,radioequivalents remaining in Blood,[2]; 48 h,0.44 μg equivalents/g
same,radioequivalents remaining in Kidney,[2]; 48 h,7.23 μg equivalents/g
same,radioequivalents remaining in Liver,[2]; 48 h,3.64 μg equivalents/g
same,radioequivalents remaining in Lung,[2]; 48 h,0.36 μg equivalents/g
same,radioequivalents remaining in Kidney,[2]; 96 h,0.83 μg equivalents/g
same,radioequivalents remaining in Liver,[2]; 96 h,0.24 μg equivalents/g
"CC(C)c1c(C(=O)Nc2ccccc2)c(-c2ccccc2)c(-c2ccc(F)cc2)n1CC[C@@H](O)C[C@@H](O)CC(=O)O [Atorvastatin, reference compound]",% = the percent of patients experiencing a musculoskeletal adverse event,"[3]; A4141001, patient type IIa",9.1%
same,No = the number of muscle skeletal adverse events,"[3]; A4141001, patient type IIa",2
same,% = the percent of patients experiencing a musculoskeletal adverse event,[3]; [4],13.5%
same,No = the number of muscle skeletal adverse events,[3]; [4],7
same,% = the percent of patients experiencing a musculoskeletal adverse event,"[3]; A4141001, patient type IIb",16.7%
same,No = the number of muscle skeletal adverse events,"[3]; A4141001, patient type IIb",5
